From PubChem BioAssay (NCI)
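Test compounds were applied to cells in 96-well plates for 48 hours at 5 doses. At the GI50, growth is halved. TGI: concentration producing complete growth inhibition.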

How the values were obtained:
Experiment in all cases: NCI tumour cell line growth inhibition, 48 h
[1] = test system: OVCAR-5 ovarian
[2] = test system: OVCAR-8 ovarian
[3] = test system: BT-549 breast
[4] = test system: SR leukemia
[5] = test system: 786-0 renal
[6] = test system: RXF 393 renal
[7] = test system: A498 renal
[8] = test system: OVCAR-4 ovarian
[9] = test system: UACC-257 melanoma
[10] = test system: U251 CNS

Structure (SMILES) | GI50 [1] [µM] | TGI [1] [µM] | GI50 [2] [µM] | TGI [2] [µM] | GI50 [3] [µM] | TGI [3] [µM] | GI50 [4] [µM] | TGI [4] [µM] | GI50 [5] [µM] | TGI [5] [µM] | GI50 [6] [µM] | TGI [6] [µM] | GI50 [7] [µM] | TGI [7] [µM] | GI50 [8] [µM] | TGI [8] [µM] | GI50 [9] [µM] | TGI [9] [µM] | GI50 [10] [µM] | TGI [10] [µM]
O=C(/C=C\c1cccc([N+](=O)[O-])c1)c1ccccc1 | 3.92 | 18.7 | 3.66 | 17 | 2.85 | 12.1 | 2.17 | > 100 | 4.95 | 12.7 | 2.01 | 5.15 | 9.05 | 25.1 | 3.38 | 12.6 | 4.85 | 12.4 | 2.01 | 4.91
COC(=O)C1=C(C(=O)Nc2cccnc2)C2OC1(C(Cc1ccccc1)Oc1ccccc1)C1OC21 (configuration not stated) | 4.1 | 16.8 | 7.94 | 22.8 | 3.43 | 12.8 | 0.918 | 5.13 | 1.69 | 3.33 | 1.71 | 3.22 | 11.2 | 23.8 | 2.05 | 4.66 | 1.85 | 3.71 | 10.7 | 22.6
Cc1ccccc1NC(=O)N/C(N)=N/c1nc2ccccc2s1 | 0.488 | > 100 | 0.0979 | > 43.2 | 0.128 | – | 0.0392 | > 100 | 0.0646 | > 100 | 0.03 | 0.464 | 0.0261 | 0.142 | 0.667 | > 100 | > 100 | > 100 | 0.0547 | > 100
CCc1ccc(/C(C#N)=C/C=C/c2ccccc2)cc1 | 7.06 | > 100 | 5 | > 100 | 7.86 | > 59.8 | 0.644 | > 61.4 | 11.1 | > 100 | 1.29 | 4.09 | 2.19 | 39.3 | 18.4 | > 100 | > 83.5 | > 100 | 3.16 | > 100
COc1ccccc1/C=C1\CCC(CN(C)C)C1=O (configuration not stated) | – | 24.2 | – | 26.3 | – | 28.1 | – | 13 | – | 5.08 | – | 9.13 | – | 34.1 | – | 19.6 | – | 25 | – | 26.9
CC(C)[C@@H]1NC(=O)[C@]2(C)CSC(=N2)c2csc(n2)CNC(=O)C[C@@H](/C=C/CCS)OC1=O | 0.0829 | > 100 | 0.0858 | > 100 | 0.397 | > 100 | 0.0563 | > 100 | 0.454 | > 100 | 0.0521 | 0.33 | 0.0156 | 0.114 | 0.416 | > 100 | 0.0537 | 2.15 | 0.0843 | 1.02
N#Cc1cc(-c2ccccc2)[nH]c1-c1nccc2ccccc12 | 31.7 | > 100 | 22.7 | > 100 | 10.1 | > 100 | 5.72 | > 100 | 26.9 | > 100 | 13.6 | 89.1 | 26.3 | > 100 | 3.43 | > 100 | 7.81 | 60.1 | 25.1 | > 100
Nc1nn(C(=O)Nc2ccc(Cc3ccccc3)cc2)c2ccc(Cl)cc12 | 22.7 | > 100 | 14.8 | > 100 | 12.4 | > 66.3 | 12.6 | 26.5 | 4.59 | 28.7 | 15.1 | 34.1 | 15.9 | 52.8 | 1.48 | 49 | 10.1 | > 100 | 13 | 29.1
Cn1c(=O)c(Sc2ccccc2F)cc2cnc(NC3CCOCC3)nc21 | > 25 | > 25 | > 25 | > 25 | > 25 | > 25 | > 25 | > 25 | > 25 | > 25 | > 25 | > 25 | > 25 | > 25 | > 25 | > 25 | > 25 | > 25 | > 25 | > 25
O=[N+]([O-])c1ccc(Oc2cccnc2)c([N+](=O)[O-])c1 | 3.26 | 16.9 | 3.52 | > 100 | 3.73 | 29 | 4.19 | > 100 | 3.43 | 26.5 | 3.8 | 14.7 | 18.7 | 43.1 | 6.4 | > 100 | 8.81 | 22.3 | 3.12 | 12.7
O=c1oc2c(Br)c(O)c(Br)cc2c2ccccc12 | – | > 100 | – | > 100 | – | 75.3 | – | 71.6 | – | > 100 | – | > 100 | – | 58.5 | – | 89.9 | – | 61.7 | – | 87.8
CCCCC(SC(=S)N(CC)CC)C(=O)Nc1nc(CC(=O)OCC)cs1 (configuration not stated) | 40.3 | > 100 | 41.4 | > 100 | 39 | > 100 | 29.4 | > 100 | > 100 | > 100 | 32.5 | > 100 | 54.3 | > 100 | 30.6 | > 100 | 35.6 | > 100 | 42.1 | > 100
Nc1ccn(C2OC(CO[P+](=O)OC3C(CO[P+](=O)OC4C(CO[P+](=O)OC5C(CO[P+](=O)OC6C(CO[P+](=O)OC7C(CO[P+](=O)OC8C(CO[P+](=O)OC9C(CO[P+](=O)OC%10C(CO[P+](=O)OC%11C(CO)OC(n%12ccc(N)nc%12=O)C%11(F)F)OC(n%11ccc(N)nc%11=O)C%10(F)F)OC(n%10ccc(N)nc%10=O)C9(F)F)OC(n9ccc(N)nc9=O)C8(F)F)OC(n8ccc(N)nc8=O)C7(F)F)OC(n7ccc(N)nc7=O)C6(F)F)OC(n6ccc(N)nc6=O)C5(F)F)OC(n5ccc(N)nc5=O)C4(F)F)OC(n4ccc(N)nc4=O)C3(F)F)C(O)C2(F)F)c(=O)n1 (configuration not stated) | 9.59 | > 100 | – | – | 0.426 | – | – | 0.507 | 0.0605 | > 100 | 0.0618 | > 100 | – | > 100 | > 100 | > 100 | 0.859 | – | – | > 100
